Where two headings read alike, the source gives them in different places.
Key:
[1] = tested on: Beet Armyworm (Spodoptera exigua, LAPHEG); assay: Bioassays on Beet Armyworm (BAW), 128-well diet tray assay; assay type: in vivo; details: Spodoptera exigua
Procedure, shortened: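 One to five second-instar larvae per well on artificial diet surface-treated with 50 μg/cm^2 test molecule (applied in 90:10 acetone-water, dried), eight wells per compound. Trays held vented at 25° C., 14:10 light-dark for five to seven days; percent mortality averaged over the eight wells.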

[2] = tested on: Cabbage Looper (Trichoplusia ni, TRIPNI); assay: Bioassays on Cabbage Looper (CL), 128-well diet tray assay; assay type: in vivo; details: Trichoplusia ni
Procedure, shortened: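 Second-instar larvae (1–5 per well) placed on artificial diet surface-treated with 50 μg/cm^2 test molecule applied in 90:10 acetone-water and dried. Held at 25° C., 14:10 light-dark, for five to seven days. Percent mortality scored per well and averaged over eight wells.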

[3] = Beet Armyworm, rating class, read-out: BAW
[4] = Cabbage Looper, rating class, read-out: CL
[5] = Beet Armyworm, Table ABC / ABC-DP rating, read-out: BAW rating
[6] = Cabbage Looper, Table ABC / ABC-DP rating, read-out: CL rating
[7] = Table ABC: Biological Results, species BAW, read-out: BAW
[8] = Table ABC: Biological Results, species CL, read-out: CL

| SMILES | pest or weed control at 50 µg/cm2 [1, 3] | pest or weed control at 50 µg/cm2 [2, 4] | pest or weed control at 50 µg/cm2 [1, 5] | pest or weed control at 50 µg/cm2 [2, 6] | pest or weed control at 50 µg/cm2 [1, 7] | pest or weed control at 50 µg/cm2 [2, 8] | further results |
| --- | --- | --- | --- | --- | --- | --- | --- |
| CCO[C@H](C)C(=O)Nc1c(F)ccc(NC(=O)c2cc(NC(=O)[C@H]3[C@H](c4ccc(Cl)c(Cl)c4)C3(Cl)Cl)ccc2Cl)c1F [F1734, 2-Chloro-5-((1R,3R)-2,2-dichloro-3-(3,4-dichlorophenyl)cyclopropane-1-carboxamido)-N-(3-((R)-2-ethoxypropanamido)-2,4-difluorophenyl)benzamide] | 50 to 100% | 50 to 100% |  |  |  |  |  |
| CC(=O)Nc1ccc(F)c(NC(=O)c2cc(NC(=O)[C@H]3[C@H](c4ccc(F)c(C(F)(F)F)c4)C3(Cl)Cl)cc(F)c2F)c1F [F1576, N-(3-Acetamido-2,6-difluorophenyl)-5-((1R,3R)-2,2-dichloro-3-(4-fluoro-3-(trifluoromethyl)phenyl)cyclopropane-1-carboxamido)-2,3-difluorobenzamide] | 50 to 100% | 50 to 100% |  |  |  |  |  |
| COc1c(Cl)cc(NC(=O)[C@H]2[C@H](c3ccc(F)c(Cl)c3)C2(Cl)Cl)cc1C(=O)NCC(F)(F)C(F)(F)F (relative stereo) [F2062, trans-3-Chloro-5-(2,2-dichloro-3-(3-chloro-4-fluorophenyl)cyclopropane-1-carboxamido)-2-methoxy-N-(2,2,3,3,3-pentafluoropropyl)benzamide] |  |  | 50 to 100% | 50 to 100% |  |  |  |
| Nc1cc(F)c(NC(=O)c2cc(NC(=O)[C@H]3[C@H](c4ccc(F)c(Cl)c4)C3(Cl)Cl)ccc2Cl)c(F)c1 [F1030, N-(4-Amino-2,6-difluorophenyl)-2-chloro-5-((1R,3R)-2,2-dichloro-3-(3-chloro-4-fluorophenyl)cyclopropane-1-carboxamido)benzamide] |  |  |  |  | 50 to 100% | 50 to 100% |  |
| O=C(Nc1ccccc1)c1cc(NC(=O)[C@H]2[C@H](c3ccc(F)c(Cl)c3)C2(Cl)Cl)cc(Cl)c1F (relative stereo) [F1194, trans-3-Chloro-5-(2,2-dichloro-3-(3-chloro-4-fluorophenyl)cyclopropane-1-carboxamido)-2-fluoro-N-phenylbenzamide] |  |  |  |  | 50 to 100% | 50 to 100% |  |
| Cc1cc(NC(=O)[C@H]2[C@H](c3ccc(F)c(Cl)c3)C2(Cl)Cl)cc(C(=O)Nc2ccc(F)c(N)c2F)c1Cl (relative stereo) [F1222, trans-N-(3-Amino-2,4-difluorophenyl)-2-chloro-5-(2,2-dichloro-3-(3-chloro-4-fluorophenyl)cyclopropane-1-carboxamido)-3-methylbenzamide] |  |  |  |  | 50 to 100% | 50 to 100% |  |
| Nc1cc(NC(=O)c2cc(NC(=O)[C@H]3[C@H](c4ccc(F)c(C(F)(F)F)c4)C3(Cl)Cl)cc(F)c2Cl)c(F)cc1F [F1398, N-(5-Amino-2,4-difluorophenyl)-2-chloro-5-((1R,3R)-2,2-dichloro-3-(4-fluoro-3-(trifluoromethyl)phenyl)cyclopropane-1-carboxamido)-3-fluorobenzamide] | 50 to 100% | 50 to 100% |  |  |  |  |  |
| Nc1cc(NC(=O)c2cc(NC(=O)[C@H]3[C@H](c4ccc(F)c(Cl)c4)C3(Cl)Cl)cc(F)c2Cl)c(F)cc1F [F1395, N-(5-Amino-2,4-difluorophenyl)-2-chloro-5-((1R,3R)-2,2-dichloro-3-(3-chloro-4-fluorophenyl)cyclopropane-1-carboxamido)-3-fluorobenzamide] | 50 to 100% | 50 to 100% |  |  |  |  |  |
| O=C(Nc1cc(F)cc(NC(=O)C(F)(F)F)c1)c1cc(NC(=O)[C@H]2[C@H](c3cc(Cl)cc(Cl)c3)C2(Cl)Cl)ccc1Cl (relative stereo) [F1639, trans-2-Chloro-5-(2,2-dichloro-3-(3,5-dichlorophenyl)cyclopropane-1-carboxamido)-N-(3-fluoro-5-(2,2,2-trifluoroacetamido)phenyl)benzamide] | 50 to 100% | 50 to 100% |  |  |  |  |  |
| O=C(COC(F)(F)F)Nc1c(F)ccc(NC(=O)c2cc(NC(=O)[C@H]3[C@H](c4cc(F)cc(C(F)(F)F)c4)C3(Cl)Cl)ccc2Cl)c1F [F1772, 2-Chloro-5-((1R,3R)-2,2-dichloro-3-(3-fluoro-5-(trifluoromethyl)phenyl)cyclopropane-1-carboxamido)-N-(2,4-difluoro-3-(2-(trifluoromethoxy)acetamido)phenyl)benzamide] |  |  | 50 to 100% | 50 to 100% |  |  |  |
| Cc1cc(NC(=O)[C@H]2[C@H](c3ccc(Cl)c(Cl)c3)C2(Cl)Cl)cc(C(=O)Nc2ccc(F)c(NC(=O)C(F)F)c2F)c1Cl [F1484, 2-Chloro-5-((1R,3R)-2,2-dichloro-3-(3,4-dichlorophenyl)cyclopropane-1-carboxamido)-N-(3-(2,2-difluoroacetamido)-2,4-difluorophenyl)-3-methylbenzamide] | 50 to 100% | 50 to 100% |  |  |  |  |  |
| O=C(Nc1c(F)ccc(NC(=O)c2cc(NC(=O)[C@H]3[C@H](c4ccc(F)c(C(F)(F)F)c4)C3(Cl)Cl)ccc2Cl)c1F)c1ccns1 [F1817, N-(3-(2-Chloro-5-((1R,3R)-2,2-dichloro-3-(4-fluoro-3-(trifluoromethyl)phenyl)cyclopropane-1-carboxamido)benzamido)-2,6-difluorophenyl)isothiazole-5-carboxamide] |  |  | 50 to 100% | 50 to 100% |  |  |  |
| O=C(NCC(F)(F)F)c1cc(NC(=O)[C@H]2[C@H](c3ccc(F)c(Cl)c3)C2(Cl)Cl)cc(Cl)c1F (relative stereo) [F2045, trans-3-Chloro-5-(2,2-dichloro-3-(3-chloro-4-fluorophenyl)cyclopropane-1-carboxamido)-2-fluoro-N-(2,2,2-trifluoroethyl)benzamide] |  |  | 50 to 100% | 50 to 100% |  |  |  |
| Cc1cc(NC(=O)CCCN)ccc1NC(=O)c1cc(NC(=O)[C@H]2[C@H](c3ccc(Cl)c(Cl)c3)C2(Cl)Cl)ccc1Cl (relative stereo) [F1202, trans-N-(4-(4-Aminobutanamido)-2-methylphenyl)-2-chloro-5-(2,2-dichloro-3-(3,4-dichlorophenyl)cyclopropane-1-carboxamido)benzamide] |  |  |  |  | 50 to 100% | 50 to 100% |  |
| O=C(NN=Cc1nccs1)c1cc(NC(=O)[C@H]2[C@H](c3cc(Cl)cc(Cl)c3)C2(Cl)Cl)ccc1Cl (relative stereo) [F3006, trans-2,2-Dichloro-N-(4-chloro-3-(2-(thiazol-2-ylmethylene)hydrazine-1-carbonyl)phenyl)-3-(3,5-dichlorophenyl)cyclopropane-1-carboxamide] |  |  | 50 to 100% | 50 to 100% |  |  | mortality at 50 µg/cm2 ([1]; 168 h, second instar larvae, 50 μg/cm^2 of test molecule on artificial diet, 25° C., five to seven days, average of eight wells, read-out: BAW % Control (or Mortality) rating): 50 to 100%; mortality at 50 µg/cm2 ([2]; 168 h, second instar larvae, 50 μg/cm^2 of test molecule on artificial diet, 25° C., five to seven days, average of eight wells, read-out: CL % Control (or Mortality) rating): 50 to 100% |
| Nc1c(F)c(F)c(F)c(NC(=O)c2cc(NC(=O)[C@H]3[C@H](c4cc(Cl)cc(Cl)c4)C3(Cl)Cl)ccc2Cl)c1F (relative stereo) [F1022, trans-N-(3-Amino-2,4,5,6-tetrafluorophenyl)-2-chloro-5-(2,2-dichloro-3-(3,5-dichlorophenyl)cyclopropane-1-carboxamido)benzamide] |  |  |  |  | 50 to 100% | 50 to 100% |  |
| O=C(Nc1ccc(F)c(NC(=O)C(F)(F)C(F)F)c1F)c1cc(NC(=O)[C@H]2[C@H](c3ccc(F)c(Br)c3)C2(Cl)Cl)ccc1Cl [F1715, 5-((1R,3R)-3-(3-Bromo-4-fluorophenyl)-2,2-dichlorocyclopropane-1-carboxamido)-2-chloro-N-(2,4-difluoro-3-(2,2,3,3-tetrafluoropropanamido)phenyl)benzamide] | 50 to 100% | 50 to 100% |  |  |  |  |  |
| Cc1cc(NC(=O)[C@H]2[C@H](c3ccc(F)c(Cl)c3)C2(Cl)Cl)cc(C(=O)Nc2ccc(F)c(N)c2F)c1F (relative stereo) [F1151, trans-N-(3-Amino-2,4-difluorophenyl)-5-(2,2-dichloro-3-(3-chloro-4-fluorophenyl)cyclopropane-1-carboxamido)-2-fluoro-3-methylbenzamide] |  |  |  |  | 50 to 100% | 50 to 100% |  |
| O=C(Nc1c(F)ccc(NC(=O)c2cc(NC(=O)[C@H]3[C@H](c4ccc(F)c(C(F)(F)F)c4)C3(Cl)Cl)ccc2Cl)c1F)c1ccc(F)nc1 [F1258, N-(3-(2-Chloro-5-((1R,3R)-2,2-dichloro-3-(4-fluoro-3-(trifluoromethyl)phenyl)cyclopropane-1-carboxamido)benzamido)-2,6-difluorophenyl)-6-fluoronicotinamide] |  |  |  |  | 50 to 100% | 50 to 100% |  |
| CCNC(=O)c1cc(NC(=O)[C@H]2[C@H](c3ccc(F)c(Cl)c3)C2(Cl)Cl)cc(Cl)c1C (relative stereo) [F2041, trans-3-Chloro-5-(2,2-dichloro-3-(3-chloro-4-fluorophenyl)cyclopropane-1-carboxamido)-N-ethyl-2-methylbenzamide] |  |  | 50 to 100% | 50 to 100% |  |  |  |
| O=C(Nc1c(F)ccc(NC(=O)C2CCCO2)c1F)c1cc(NC(=O)[C@H]2[C@H](c3cc(Cl)c(Cl)c(Cl)c3)C2(Cl)Cl)cc(F)c1F (stereo partly drawn) [F1778, N-(3-(5-((1R,3R)-2,2-Dichloro-3-(3,4,5-trichlorophenyl)cyclopropane-1-carboxamido)-2,3-difluorobenzamido)-2,4-difluorophenyl)tetrahydrofuran-2-carboxamide] |  |  | 50 to 100% | 50 to 100% |  |  |  |
